From patent US12673104B2, “Cleavable polymer drug conjugates” (RS ARASTIRMA EGITIM DANISMANLIK ILAC SANAYI TICARET ANONIM …, priority 2016, dated 2026)

Experiment: Pharmacokinetic study (plasma total DTX)
Type: in vivo
Settings: total DTX in plasma
Procedure: PEGMEMA-DTX conjugates having 50 kDa and 85 kDa molecular weight were subjected to pharmacokinetic testing and its pharmacokinetic profile was compared with that of free DTX.
Pharmacokinetic parameters for total DTX were calculated using the plasma total DTX concentration values of polymer drug conjugates and free DTX. Half-life, volume of distribution (VDβ), clearance (CL), and total area under the curve (AUC total) were calculated.
In order to provide similarity the HPMA-GFLG-DTX polymer was prepared without RGDfK targeting group.

AUC total: 10 ± 3 µg·h/mL | clearance (read-out: CL (clearance) (converted)): 2.34 mL/min | half-life (read-out: Half Life (β) (converted)): 187 ± 52.8 min | Vd (read-out: VDβ (volume of distribution)): 0.664 ± 0.258 L
Structure (SMILES): CC(=O)O[C@@]12CO[C@@H]1C[C@H](O)[C@@]1(C)C(=O)[C@H](O)C3=C(C)[C@@H](OC(=O)[C@H](O)[C@@H](NC(=O)OC(C)(C)C)c4ccccc4)C[C@@](O)([C@@H](OC(=O)c4ccccc4)[C@H]21)C3(C)C [Free DTX, Docetaxel]
